One may read the EC50 as the concentration at which the effect is half-maximal.

Results on 15 compounds are retold here after PubChem BioAssay AID652002 (Sanford-Burnham Center for Chemical Genomics, 2013).

Test [1] is described as follows: TRAIL sensitizers in caspase-8 expressing neuroblastoma cells, dose response, NB7 cells plus caspase-8, luminescence, panel (AID 652002). Particulars: NB7 neuroblastoma +caspase-8, no TRAIL, compound-alone cytotoxicity counter-screen, luminescence viability, NB7+Caspase-8. On the technique in general: Counterscreens check selectivity or assay interference.
A further test deals with NB7+Caspase-8. The description is as above. Particulars: NB7 neuroblastoma +caspase-8, TRAIL sensitization, luminescence viability, with TRAIL.
Test [2] addresses Tumor necrosis factor receptor superfamily member 10B (Homo sapiens) (UniProt O14763). The description is as above. The following applies: NB7 neuroblastoma +caspase-8, TRAIL sensitization, luminescence viability; NB7+Caspase-8; with TRAIL, mean of runs.
The mark [3] stands for this setting: run 1, single replicate panel EC50.
The mark [4] stands for this setting: run 2, single replicate panel EC50.

Activity calls are given as the source filed them. How the calls were made is not given here.

Sequence of Tumor necrosis factor receptor superfamily member 10B (Homo sapiens) (O14763 whole entry, looked up): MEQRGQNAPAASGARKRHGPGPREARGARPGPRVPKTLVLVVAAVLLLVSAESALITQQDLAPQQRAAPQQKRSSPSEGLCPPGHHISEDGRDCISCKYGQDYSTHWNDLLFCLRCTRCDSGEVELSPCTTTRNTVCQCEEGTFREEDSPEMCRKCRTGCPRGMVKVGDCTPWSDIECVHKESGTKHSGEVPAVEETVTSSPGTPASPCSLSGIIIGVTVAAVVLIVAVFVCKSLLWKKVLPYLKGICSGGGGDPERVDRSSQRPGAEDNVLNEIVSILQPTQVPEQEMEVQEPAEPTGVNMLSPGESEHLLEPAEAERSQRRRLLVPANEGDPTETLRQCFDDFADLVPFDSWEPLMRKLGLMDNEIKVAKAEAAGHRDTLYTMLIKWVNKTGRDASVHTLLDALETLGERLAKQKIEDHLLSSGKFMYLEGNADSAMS

Turning to `CC1(Cc2ccc(OC(F)(F)F)cc2)C(=O)Nc2ccc(S(=O)(=O)NC3CCCCC3)cc21` (stereo not given), the EC50 entry in test [1] (mean of runs) is “inactive”. Moreover, the concentration for a half-maximal effect (EC50) was above 12.5 µM in test [1] (setting [3]); 12.3 µM in test [1] (setting [4]); above 12.5 µM at NB7+Caspase-8 (setting [3]); above 12.5 µM at NB7+Caspase-8 (setting [4]); > 12.5 µM (inactive) in test [2].
For the compound `CN1C[C@@H]2[C@@H]3C(=O)N(Cc4ccccc4)C(=O)[C@@H]3[C@](Cc3ccccc3)(C1=O)N2C(=O)c1ccc(C(C)(C)C)cc1`, the EC50 in test [1] (mean of runs) was > 12.5 µM (inactive); in test [1] (setting [3]), above 12.5 µM; in test [1] (setting [4]), above 12.5 µM; at NB7+Caspase-8 (setting [3]), above 12.5 µM; on NB7+Caspase-8 (setting [4]), above 12.5 µM; in test [2], > 12.5 µM (inactive).
Take `O=C1Cc2c(-c3ccccc3)cc(-c3cccc(Cl)c3)nc2-c2ccccc2N1`: the EC50 is > 12.5 µM (inactive) in test [1] (mean of runs); above 12.5 µM in test [1] (setting [3]); above 12.5 µM in test [1] (setting [4]); above 12.5 µM on NB7+Caspase-8 (setting [3]); above 12.5 µM on NB7+Caspase-8 (setting [4]); > 12.5 µM (inactive) in test [2].
Regarding `COc1ccc(-c2cc(C(=O)OCC(=O)Nc3ccc4c(c3)OCO4)c3ccccc3n2)cc1`, the EC50 result in test [1] (mean of runs) and in test [2] was “inactive” each time. Also, the EC50 in test [1] (setting [3]) is 6.39 µM; in test [1] (setting [4]), 6.23 µM; at NB7+Caspase-8 (setting [3]) it was above 12.5 µM; on NB7+Caspase-8 (setting [4]), 7.82 µM.
On to `CN(C)CCCN(C(=O)c1ccc(S(=O)(=O)N2CCCc3ccccc32)cc1)c1nc2ccc(F)cc2s1`, for which the EC50 in test [1] (mean of runs) is > 12.5 µM (inactive); in test [1] (setting [3]), above 12.5 µM; in test [1] (setting [4]) it was above 12.5 µM; at NB7+Caspase-8 (setting [3]), above 12.5 µM; on NB7+Caspase-8 (setting [4]), above 12.5 µM; in test [2], > 12.5 µM (inactive).
Regarding `COc1ccc2sc(-c3ccc(S(C)(=O)=O)cc3)c(C#Cc3cncn3C)c2c1`, the EC50 in test [1] (mean of runs) is > 12.5 µM (inactive); in test [1] (setting [3]) it was above 12.5 µM; in test [1] (setting [4]), above 12.5 µM; on NB7+Caspase-8 (setting [3]), above 12.5 µM; on NB7+Caspase-8 (setting [4]), above 12.5 µM; in test [2], > 12.5 µM (inactive).
Consider `Clc1nc(Cl)c2ncn(-c3ccccc3)c2n1`, for which the EC50 in test [1] (mean of runs) is > 12.5 µM (inactive); in test [1] (setting [3]), above 12.5 µM; in test [1] (setting [4]), above 12.5 µM; on NB7+Caspase-8 (setting [3]) it was above 12.5 µM; at NB7+Caspase-8 (setting [4]), above 12.5 µM; in test [2], > 12.5 µM (inactive).
As to `CCCCCCCn1c2c(c(=N)c3ccccc31)CCC2`, the EC50 in test [1] (mean of runs) was > 12.5 µM (inactive); in test [1] (setting [3]), above 12.5 µM; in test [1] (setting [4]) it was above 12.5 µM; at NB7+Caspase-8 (setting [3]), above 12.5 µM; at NB7+Caspase-8 (setting [4]), 4.65 µM. In test [2], the EC50 result was “inactive”.
With `C(=C\c1ccco1)/c1nc2ccccc2[nH]1`, the EC50 is > 12.5 µM (inactive) in test [1] (mean of runs); above 12.5 µM in test [1] (setting [3]); above 12.5 µM in test [1] (setting [4]); above 12.5 µM on NB7+Caspase-8 (setting [3]); above 12.5 µM on NB7+Caspase-8 (setting [4]); > 12.5 µM (inactive) in test [2].
In the case of `Cn1nnc(NC(=O)c2ccc(C(C)(C)C)cc2)n1`, the EC50 entry in test [1] (mean of runs) and in test [2] was “inactive” throughout. Also, the EC50 in test [1] (setting [3]) was above 12.5 µM; in test [1] (setting [4]), 5.83 µM; on NB7+Caspase-8 (setting [3]) it was above 12.5 µM; on NB7+Caspase-8 (setting [4]), 5.01 µM.
Regarding `Cc1ccc(S(=O)(=O)Nc2ccccc2C(=O)Nc2nc(-c3ccc(F)cc3)cs2)cc1`, the EC50 result in test [1] (mean of runs) and in test [2] was “inactive” in each case. Moreover, the concentration giving a half-maximal response (EC50) was above 12.5 µM in test [1] (setting [3]), 8.36 µM in test [1] (setting [4]), above 12.5 µM at NB7+Caspase-8 (setting [3]) and 9.9 µM at NB7+Caspase-8 (setting [4]).
Turning to `Cc1ccnc(NC(=O)Nc2ccc3c(c2)OCO3)c1`, the EC50 in test [1] (mean of runs) was > 12.5 µM (inactive); in test [1] (setting [3]), above 12.5 µM; in test [1] (setting [4]), above 12.5 µM; on NB7+Caspase-8 (setting [3]), above 12.5 µM; at NB7+Caspase-8 (setting [4]), above 12.5 µM; in test [2], > 12.5 µM (inactive).
On to `Cc1ccn2cc(C(=O)Nc3ccc4c(c3)OCCO4)nc2c1`, for which the EC50 result in test [1] (mean of runs) and in test [2] was “inactive” in each case. In addition, the concentration for a half-maximal effect (EC50) in test [1] (setting [3]) was 7.08 µM; in test [1] (setting [4]) it was 8.4 µM; at NB7+Caspase-8 (setting [3]) it was above 12.5 µM; on NB7+Caspase-8 (setting [4]), 4.29 µM.
For the compound `CCN(CC)S(=O)(=O)c1ccc(C(=O)OCC(=O)Nc2ccc(-c3nc4ccc(C)cc4s3)cc2)cc1`, the EC50 in test [1] (mean of runs) is > 12.5 µM (inactive); in test [1] (setting [3]), above 12.5 µM; in test [1] (setting [4]), above 12.5 µM; at NB7+Caspase-8 (setting [3]), above 12.5 µM; at NB7+Caspase-8 (setting [4]), above 12.5 µM; in test [2] it was > 12.5 µM (inactive).
Consider `Cc1ccc2oc(-c3cccc(N)c3)nc2c1`, for which the EC50 result in test [1] (mean of runs) and in test [2] was “inactive” each time. For the same compound, the concentration for a half-maximal effect (EC50) was 4.71 µM in test [1] (setting [3]), 7.88 µM in test [1] (setting [4]), above 12.5 µM on NB7+Caspase-8 (setting [3]) and 5.69 µM at NB7+Caspase-8 (setting [4]).
